In US12157740B2, “Triazolopyridines and triazolopyrimidines that lower stress-induced p-tau” (NantNeuro, LLC, priority 2015, dated 2024):
Values belong to the molecule of their own block, whether it stands above or below them.

Columns and labels:
[1] = test system: tau and p-tau in SH-Sy5Y cells; assay: screens for tau and p-tau levels in SH-Sy5Y cells (no CRF stated); type: cell-based; settings: for tau and/or p-tau lowering effect compared with J03: SH-Sy5Y screens (J04: p-tau only, FIG. 19; J17: FIGS. 21A-B; J14: FIG. 28A)
Protocol: As described below, in vitro studies were performed using SHSY-5Y cells. These cells are a useful neurological model that differentiate into cells with morphological and biochemical characteristics of mature neurons including mature isoforms of tau. […]

[2] = in vivo pharmacokinetics, plasma and brain levels; set-up: species or system mouse; settings: for brain levels after subcutaneous injection: peak for J14 and J19; for time of peak levels after SQ injection: plasma and brain (J19: brain); for levels after oral delivery compared with injection: J32: plasma and brain
[3] = test system: mice; assay: J14 daily SQ injection for 12 days in mice; type: in vivo, mouse
Protocol: (§1) Animal experiments were performed using J20 mice. The J20 mouse is a model of for Alzheimer's disease. This model overexpresses human APP with two mutations linked to familial Alzheimer's disease (the APP KM670/671NL (Swedish) and 5APP V717F (Indiana) mutations).
FIGS. 31A-31F depict total sAPPα, Aβ1-40, and Aβ1-42, and tau, p-tau, and p-tau/tau ratio, respectively, after daily SQ injection at 10 mkd does for 12 days.

[4] = test system: tau and phospho-tau in SHSY-5Y cells; assay: CRF-induced tau, p-tau and sAPPα changes in SHSY-5Y cells; type: cell-based; settings: for p-tau/tau ratio: FIG. 32C
[5] = test system: J20 mice; assay: J17 pilot study in J20 mice (oral, 28 days); type: in vivo, mouse
Protocol: as §1
In a J17 pilot study (#1 pilot study) male and female J20 mice were housed singly and treated with J17 at 10 rnkd by oral delivery for 28 days.

[6] = test system: tau and p-tau; assay: effect of J03 and J19 on tau and p-tau (FIG. 39E-39F, system not given)
Excerpt: JI9 decreased tau and both J03 and JI9 decreased p-tau (FIG. 39E). Therefore, while the p-tau/tau ratio looks unchanged for J19 FIG. 39F. This is due to the tau decrease and not due to a lack of effect.

[7] = primary screen in SH-Sy5Y cells, FIG. 19
[8] = CRF-1 at 0 nM, 50 nM and 100 nM, FIGS. 29B-29C
[9] = CRF-1 at 100 nM for 3 days, compound at 20 nM, FIG. 29A
[10] = compared to a control J03, FIGS. 33A-33B
[11] = 10 mg/kg intraperitoneal, FIG. 33D

clearance after injection compared with oral delivery ([2]; SQ injection, FIG. 20A): slower
brain levels after SQ injection ([2]; dose not given, FIG. 20A): ~55 ng/g
brain levels after oral delivery ([2]; dose not given, FIG. 20A): ~55 ng/g
Compound: CCC(COC)n1nnc2c(Nc3ccc(OC)cc3C)nc(C)nc21 (centres unmarked) [J04]
tau and/or p-tau lowering effect compared with J03 [1]: same level as J03
p-tau [1, 7]: did lower
tau [1, 7]: did not lower

brain/plasma ratio after SQ injection ([2]; 10 mg/kg SQ): 0.6
plasma level at peak after subcutaneous injection ([2]; 10 mg/kg SQ, FIG. 30A): 798 ng/mL
brain levels after subcutaneous injection ([2]; 10 mg/kg SQ): 485 ng/g
time of peak levels after SQ injection ([2]; 10 mg/kg SQ): 2 h
time of peak brain levels after oral feeding ([2]; 10 mg/kg oral, FIG. 30B): 2 h
brain levels after oral delivery ([2]; 10 mg/kg oral, peak for J14): 13.3 ng/g
brain:plasma ratio after oral delivery ([2]; oral feeding at 10 mg/kg): 1.33
Compound: CCC(COC)n1nnc2c(N(C)c3c(C)cc(C)cc3C)nc(C)nc21 (centres unmarked) [J14]
tau protein ([3]; B254 mice (Swedish, Indiana and D664A APP mutations), trend for both vehicle and J14 treated, FIGS. 31D-31F): trend for lower levels
Aβ1-40 ([3]; daily SQ injection 10 mkd for 12 days, FIG. 31B): trend toward decrease
Aβ1-42 ([3]; daily SQ injection 10 mkd for 12 days, FIG. 31C): trend toward decrease
sAPPα ([3]; daily SQ injection 10 mkd for 12 days, compared to vehicle treated mice, FIG. 31A): decrease
p-tau [4, 8]: decreasing
p-tau and tau decrease compared with J03 [4, 8]: more than J03
tau [4, 8]: decreasing
p-tau [4, 9]: decreased
total tau [4, 9]: decreased
tau and/or p-tau lowering effect compared with J03 [1]: more than J03
p-tau ([1]; screen of FIG. 28A): decreased
total tau ([1]; screen of FIG. 28A): decreased
p-tau ([1]; screen of FIG. 28B): neither J14 nor J03 decreased
total tau ([1]; screen of FIG. 28B): neither J14 nor J03 decreased

plasma levels after subcutaneous injection ([2]; 10 mg/kg SQ, FIG. 23A): ~4000 ng/m
brain levels after subcutaneous injection ([2]; 10 mg/kg SQ): ~400 ng/g
plasma levels relative to brain levels after oral delivery ([2]; 10 mg/kg oral, FIG. 23B): ~10 fold
brain levels after oral delivery ([2]; 10 mg/kg oral, peak for J14): ~50 ng/g
Compound: CCC(COC)Nc1nc(C)nc2c1nnn2-c1ccc(OC)cc1C (centres unmarked) [J17]
tau after exposure to CRF ([4]; FIG. 21D): decreased
p-tau after exposure to CRF ([4]; FIG. 21E): decreased
p-tau with increasing concentrations of CRF ([4]; seen at all concentrations of CRF tested, excluding 0, FIG. 22C): decrease
sAPPα with increasing concentrations of CRF ([4]; seen without CRF and at 50 nM, not at other concentrations, FIG. 22A): decrease
tau with increasing concentrations of CRF ([4]; seen without CRF and at 50 and 100 nM, FIG. 22B): decrease
sAPPα after exposure to CRF ([4]; versus control, FIG. 21C): the same for control as for J17
Aβ1-40/Aβ1-42 ratio ([5]; FIG. 26C): no significant difference
Aβ1-42 ([5]; data from all mice, FIG. 26A): no significant differences
activity ([5]; male and female J20 mice housed singly, oral 28 days, not significant, FIG. 24A): lowered
p-tau ([5]; male mice, FIG. 27B): slightly lower
p-tau/tau ratio ([5]; male mice, FIG. 27C): lower still
Aβ1-42 ([5]; male mice, low outlier from one sibling pair eliminated, FIG. 26B): significant reduction
Tau ([5]; males, FIG. 27A): increased
sAPPβ ([5]; oral 28 days, FIG. 25B): decrease
novel object preference, overall ([5]; oral 28 days, all mice, FIG. 24B): increase with J17 was significant
sAPPα ([5]; oral 28 days, both genders, FIG. 25A): increase with J03 but not J17
ratio sAPPα/sAPPβ ([5]; oral 28 days, males, FIG. 25C): greater
tau ([1]; SH-Sy5Y cells, FIG. 21A): significantly lower
p-tau ([1]; SH-Sy5Y cells, FIG. 21B): significantly lower
tau and/or p-tau lowering effect compared with J03 [1]: greater

brain levels after subcutaneous injection ([2]; 10 mg/kg SQ): ~190 ng/g
time of peak levels after SQ injection ([2]; 10 mg/kg SQ): 4 h
levels after oral delivery compared with injection ([2]; 10 mg/kg oral): much lower
persistence of brain levels after SQ injection ([2]; 10 mkd SQ, FIG. 32G): relatively high until 8 hours
Compound: CCC(COC)Nc1nc(C)nc2c1nnn2-c1ccc(Cl)cc1C (centres unmarked) [J19, 3-(4-Chloro-2-methylphenyl)-N-(1-methoxybutan-2-yl)-5-methyl-3H-[1,2,3]triazolo[4,5-d]pyrimidin-7-amine]
p-tau/tau ratio ([4]; at 50 and 100 nM CRF): highly significantly decreased
tau ([4]; in the absence of CRF and in the presence of 100 nM CRF, FIG. 32A): trend to decrease
p-tau/tau ratio ([4]; in the absence of CRF): decreased
p-tau ([4]; in the presence and absence of CRF, FIG. 32B): significantly reduced
sAPPα ([4]; with and without CRF, FIG. 32D): trend for sAPPα to be higher
p-tau ([6]; FIG. 39E): decreased
tau ([6]; FIG. 39E): decreased
p-tau/tau ratio ([6]; FIG. 39F as printed, due to the tau decrease): unchanged

Compound: CCC(COC)n1nnc2c(N(C)c3ccc(OC)cc3C)nc(C)nc21 (centres unmarked) [J30]
total tau levels [1, 10]: lowered

brain/plasma ratio after SQ injection ([2]; 10 mg/kg SQ): 0.75
time of peak levels after SQ injection ([2]; 10 mg/kg SQ): 1 h
clearance from brain after IP injection [2, 11]: cleared out slowly over 8 hours
time of peak brain levels after IP injection [2, 11]: 2 h
levels after oral delivery compared with injection ([2]; 10 mg/kg oral): much lower
Compound: CCC(COC)N(C)c1nc(C)nc2c1nnn2-c1c(C)cc(C)cc1C (centres unmarked) [J32]
p-tau/tau ratio ([1]; 1p M of J32 in SH-SY5Y cells, compared to J03 and a control, FIG. 33C): significant decrease
p-tau/tau ratio [1, 10]: significantly lowered
